Measurements as given in patent US20260306460A1, “COMPOSITION FOR REMOVING AND INHIBITING SENESCENT CELLS, AND USES THEREOF” (LIFECEUTIX CO., LTD., priority 2023, published 2026).

What was measured:
[1] = system: doxorubicin-induced aged C57BL6J mice; experiment: p16 and p21 mRNA in doxorubicin-aged mice, Example 22-2, Table 31; assay type: in vivo, mouse; settings: untreated aged = 100%
Experimental: (§1) Eight-week-old male C57BL6J mice (KRIBB Laboratory Animal Resource Center) were acclimated to the experimental environment for one week. Afterwards, the anticancer agent doxorubicin was administered intraperitoneally at a concentration of 10 mg/kg, inducing aging for more than 10 days. The aging-induced mice were randomly assigned to experimental and control groups. LX-403 was mixed with a 10% ethanol solution of PEG400 and administered orally at a concentration of 25 mg/kg or intradermally at a concentration of 1 μM for 21 days. LX-1801 was mixed in distilled water with 4% DMSO, 30% PEG300, and 5% Tween80 and administered intradermally at a concentration of 0.4 μM daily for 21 days. LX-2001 was mixed in PBS and administered intradermally at a concentration of 2 μM daily for 21 days. LX-2002 was mixed in distilled water with 4% DMSO, 30% PEG300, and 5% Tween80 and administered intradermally at a concentration of 2 μM daily for 21 days. […] LX-2005 was mixed in distilled water with 4% DMSO, 30% PEG300, and 5% Tween80 and administered intradermally at a concentration of 90 μM daily for 21 days. LX-2007 was mixed in distilled water with 4% DMSO, 30% PEG300, and 5% Tween80 and administered intradermally at a concentration of 90 μM daily for 21 days. […] LX-3002 was mixed in distilled water with 4% DMSO, 30% PEG300, and 5% Tween80 and administered orally at a concentration of 10 mg/kg daily for 21 days. […] LX-5411 was mixed in 5% phosphate-buffered saline (PBS) and administered orally at a concentration of 10 mg/kg daily for 21 days or intradermally at a concentration of 3 μM. LX-5701 was mixed in PBS and administered orally at a concentration of 360 mg/kg daily for 21 days. LX-6807 was mixed in saline and administered intraperitoneally at a concentration of 1 mg/kg daily for 21 days. The control group received only the solution in the same volume. After the end of drug administration, the methods described in each example below were performed.
Mice were sacrificed using the same method as in Example 7-2 of WO2023-085787 A1. RNA was extracted from organ tissues of each site, and cDNA synthesized was used for qRT-PCR and analysis. […] The mRNA amounts of p16 and p21 after aging induction were calculated as 100% and compared with the mRNA amounts of p16 and p21 after LX-5701 treatment.

[2] = system: doxorubicin-induced aged C57BL6J mice; experiment: SASP mRNA (IL6, CXCL1, CXCL10, IL1B) in doxorubicin-aged mice, Example 22-6, Table 35; assay type: in vivo, mouse; settings: untreated aged = 100%
Experimental: as §1
Using cDNA synthesized in the same manner as in Example 7-6 of WO2023-085787 A1, qRT-PCR was performed and analyzed for senescence-associated secretory factors (SASPs) like IL6, CXCL1, CXCL10, IL1B, etc. […] The mRNA amount of each factor after aging induction was calculated as 100% and compared with the mRNA amount of each factor after LX-5701 treatment.

O=C1C2CCN(CC2)C1CNC(=O)C(F)(F)F (centres unmarked) [LX-5701]
p16 mRNA (%), Kidney ([1]; Kidney): 78 (±7.7) % | p21 mRNA (%), Kidney ([1]; Kidney): 75 (±5.8) % | p16 mRNA (%), Liver ([1]; Liver): 62 (±7.5) % | p21 mRNA (%), Liver ([1]; Liver): 64 (±11.7) % | p16 mRNA (%), eWAT ([1]; eWAT): 55 (±11.5) % | p21 mRNA (%), eWAT ([1]; eWAT): 71 (±8.8) % | CXCL1 mRNA (%), Liver ([2]; Liver): 68 (±14.8) % | CXCL10 mRNA (%), Liver ([2]; Liver): 75 (±4.1) % | IL1β mRNA (%), Liver ([2]; Liver): 73 (±3.5) % | IL6 mRNA (%), Liver ([2]; Liver): 64 (±7.5) % | CXCL1 mRNA (%), eWAT ([2]; eWAT): 74 (±4.7) % | CXCL10 mRNA (%), eWAT ([2]; eWAT): 69 (±7.0) % | IL1β mRNA (%), eWAT ([2]; eWAT): 56 (±11.2) % | IL6 mRNA (%), eWAT ([2]; eWAT): 55 (±15.1) %
